Source: patent US6515106B1, “Lysozyme-analogous polypeptides with an anti-microbial effect, their production and use” (priority 1997, dated 2003)
Read-outs that look alike come from different tables or passages of the source.

Experiments:
Escherichia coli cells = experiment: Relative survival rates of Escherichia coli cells after 1 hr incubation (bactericidal activity); assay type: cell-based; conditions: for Relative survival rate of Escherichia coli cells: in 0.1 × PBS, 1 hr incubation
Description: The antibiotic effectiveness of the polypeptides of the invention is illustrated by their effect on survival rates of Escherichia coli cells in Table 1.
(§1) The bactericidal effect of the individual fragments is readily determined by incubation (use of 1-10 μg polypeptide for a quantity of 1×10^7 bacteria cells) for one hour with Escherichia coli or other gram-negative (e.g. Erwinia carotovora, Agrobacterium tumefaciens, Pseudomonas fluorescens) or gram-positive type of bacteria (e.g. Micrococcus lysodeikticus, Clavibacter michiganensis), followed by plating out a dilution series of the suspension, and counting the surviving bacteria. The fungicidal effect of the individual fragments is determined by incubation for 20 hours with spores of Phytophthora nicotianae, or other fungus types, followed by plating out to determine the reduced growth length of the fungus hyphae. The activity is determined in relation to purified T4 lysozyme as standard.

[1] = tested on: Phytophthora nicotianae zoospores; experiment: Relative length of germ tubes of Phytophthora nicotianae zoospores (fungicidal activity, Table 2); assay type: cell-based; conditions: 10 μg, in 0.1 xPBS, after 7 hrs, against blank control
Phytophthora nicotianae = experiment: Fungus tests: relative lengths of germ tubes (untitled table, buffers I/II); assay type: cell-based
Description: Fungus tests: Relative lengths of germ tubes
as §1

muramidase = experiment: Enzyme activity (muramidase) of the polypeptide; assay type: biochemical, bacteriophage T4

With PNRAKRVIFTFRT [Peptide A4] the “Relative survival rate of Escherichia coli cells” value (Escherichia coli cells; 1 μg) was 0.74 +/− 0.14, the “Relative survival rate of Escherichia coli cells” value (Escherichia coli cells; 10 μg) was 0.05 +/− 0.09 and the “Bactericidal activity compared with T4 lysozyme, in words” value (Escherichia coli cells; comment on Table 1) was “significantly higher bactericidal activity”. The “Relative length of germ tubes” value [1] was 0.48, the “Relative lengths of germ tubes” value (Phytophthora nicotianae; 1 μg, in buffer I (20 μl buffer Al + 1 μl PBS)) was 0.59 and the “Enzyme activity (muramidase), in words” value (muramidase) was “no enzymatic muramidase activity”. The “Enzyme activity (muramidase), in words” value (muramidase; listed as amino acid 143-155) was “none of the native enzymatic activity”.
In the case of “WDEAAVNLAKSRWYNQ [Peptide A23, peptide including AA 126-141 of T4 lysozyme]”, the “Relative lengths of germ tubes” value (Phytophthora nicotianae; 10 μg, in buffer II (20 μl buffer Al + 1 μl 50% DMSO/50% PBS)) is reported as 0.69.
